Results from patent US20230265296A1, “COATING COMPOSITION INCLUDING ALKYL OXIMES” (AdvanSix Resins & Chemicals LLC, priority 2015, published 2023).

How the values were obtained:
fish = test: Fish mortality (LC50); type: in vivo
[1] = Eye irritation categorisation; details: hazard code
[2] = Sensitization classification
Vapor pressure = type: physicochemical; details: at 20° C.
algae = test: Algae growth inhibition (EC50); type: cell-based
[3] = Saturated vapor concentration; type: physicochemical

SMILES | lethal concentration of 50% mortality (LC50) for fish (fish) | eye irritation category [1] | dermal irritation (Dermal irritation) | sensitizer classification [2] | vapor pressure (Vapor pressure) | vapor pressure (Vapor pressure; listed as 2-pentanone oxime) | effective concentration of 50% growth inhabitation (EC50) for algae (algae) [ppm] | saturated vapor concentration [3] [ppm] | saturated vapor concentration relative to that of MEKO ([3]; 2-PO versus MEKO)
CCC/C(C)=N\O [2-PO, 2-pentanone oxime] | greater than 100 ppm | serious eye irritation (code H319) | no irritation | not a sensistizer | about 1.60 mm Hg | about 2.14 hPa | 88 | 300 | less than 25%
C/C(=N/O)C(C)C [3-methyl-2-butanone oxime] | – | – | – | – | less than 0.975 mm Hg | – | – | – | –
CCC(C)=NO [MEKO, methyl ethyl ketoxime, reference compound] | 48 ppm | – | – | – | 2.00 mm Hg | – | 7 | 1350 | –
CC(CC(C)C)=NO [MIBKO, methyl isobutyl ketoxime] | – | – | – | – | about 0.13 hPa | – | – | – | –
